# Reference: US10376484B2, “Combination of bezafibrate and of resveratrol or resveratrol derivatives for the treatment and prevention of diseases involving a mitochondrial energy dysfunction” (priority 2013, dated 2019)
# Legend:
# Assay type in all cases: cell-based, human
# [1] = test system: fibroblasts of patients suffering from moderate VLCAD deficiency; assay: Tritiated palmitate β-oxidation (FAO) in fibroblasts after 48 h treatment, VLCAD deficiency; details: for % increase in fatty acid oxidation (FAO): 48 h, vs carrier
# Experimental: (§1) Cellular palmitate β-oxidation activity can be measured with any suitable technology known to persons skilled in the art. That can in particular be achieved by using tritiated palmitate complexed with BSA (bovine albumin serum), which is added to the cells to be tested. After incubation, the addition of trichloroacetic acid (TCA) in a supernatant sample makes it possible to precipitate unmetabolized complexes (BSA/tritiated palmitate), which are excluded by centrifugation. The measurement of tritium present in the supernatant after centrifugation and exclusion of unmetabolized complexes (BSA/tritiated palmitate) makes it possible to determine the amount of palmitate metabolized by the cells. A precise example of a protocol for implementing this process for measuring palmitate β-oxidation activity is described in Example 1. The fibroblasts are grown at 37° C. in complete Ham's F10 medium, i.e., supplemented with 12% fetal calf serum, 100 U/ml penicillin, and 0.1 mg/ml streptomycin, at a concentration of 70,000 cells per ml and per well in 24-well culture dishes. Twenty-four hours after seeding, stock solutions of RSV (0.2 M) and of BZ (0.4 M) are prepared in DMSO in order to prepare the various cell treatment media. For the treatment, the culture medium is discarded and replaced with 1 ml of complete Ham's F10 medium supplemented with one of the molecules of interest at one of the following concentrations, 75 μM RSV, or 400 μM BZ, or 20 μM RSV, or 30 μM RSV, […], […], or the culture medium is discarded and replaced with 1 ml of complete Ham's F10 medium supplemented with a combination of the two molecules of interest at the following concentrations: ([…]), or ([…]). Additional wells receive 1 ml of complete medium supplemented with the diluent of the molecules of interest only (<0.05% DMSO). Each of these treatment conditions is applied in triplicate (3 wells) for each patient, in each experiment. The 24-well dishes are then incubated at 37° C. for 48 hours. Thus, the cells of each individual studied are treated in all of the conditions listed, in parallel, for 48 hours, before the measurement of palmitate β-oxidation. The fatty acid used is palmitate labeled with tritium at positions 9 and 10 (^3H-Pal). A stock solution is prepared beforehand by mixing 100 μl of ^3H-Pal, 130 μl of 50 mM “cold” palmitate and 13 ml of 25 mg/ml BSA solution. A ^3H-Pal/BSA (bovine serum albumin) complex ensuring good palmitate solubilization is thus obtained (final palmitate concentration: 500 μM). The test of ^3H-palmitate oxidation is carried out on fibroblasts seeded in a 24-well plate. The culture medium is first discarded and the wells are rinsed three times with PBS. A 125 μM ^3H-Pal working solution is prepared, from the 500 μM stock solution, in PBS with Ca/Mg, supplemented with 1 mM carnitine. 200 μl of t[…]-Pal solution is introduced into each well and the plates are incubated at 37° C. for 2 hours. During this time, three counting vials are prepared for the measurement of specific radioactivity (RDA, in CPM/nmol of fatty acids) of the reaction medium. These vials contain 5 ml of scintillation fluid, 1.5 ml of distilled water, and 20 μl of ^3H-Pal/BSA solution. The scintillation fluid converts the radioactive energy of ^3H into light energy, which thus makes it possible to measure radioactivity, expressed in counts per minute (CPM), using a liquid scintillation counter. At the end of 2 hours of incubation, 200 μl is taken from each well and mixed with 200 μl of 10% trichloroacetic acid (TCA). This strong acid ensures the precipitation of unmetabolized BSA/AG complex. The tubes are then centrifuged at 3300 rpm for 10 minutes at 4° C. After centrifugation, 350 μl of supernatant is taken and mixed with […] of 6 M NaOH in order to neutralize the pH. The total volume, or 450 μl, is transferred to an ion-exchange resin column which retains the tritiated water. These columns are then transferred to scintillation vials. […]
# [2] = test system: fibroblasts of patients suffering from moderate CPT2 deficiency; assay: Tritiated palmitate β-oxidation (FAO) in fibroblasts after 48 h treatment, CPT2 deficiency; details: for % increase in fatty acid oxidation (FAO): 48 h, vs carrier
# Experimental: as §1
# [3] = test system: fibroblasts of patients suffering from moderate β-oxidation deficiency; assay: Palmitate β-oxidation, correction of deficiency, pooled statements over deficiency types; details: for reduction in dose by a factor, combination vs compound alone: 30 μM RSV + 35 μM BZ vs 75 μM RSV / 400 μM BZ; for reduction in dose by a factor, combination vs compound alone / concentration at which the compound alone corrects the deficiency: VLCAD and CPT2 deficiency; for concentration at which the compound alone corrects the deficiency: compound used alone; for factor by which combining the two molecules decreases the dose needed to correct the deficiency: conclusion over three types of moderate β-oxidation enzyme deficiencies
# Experimental: The fibroblasts are grown at 37° C. in complete Ham's F10 medium, i.e., supplemented with 12% fetal calf serum, 100 U/ml penicillin, and 0.1 mg/ml streptomycin, at a concentration of 70,000 cells per ml and per well in 24-well culture dishes. Twenty-four hours after seeding, stock solutions of RSV (0.2 M) and of BZ (0.4 M) are prepared in DMSO in order to prepare the various cell treatment media. For the treatment, the culture medium is discarded and replaced with 1 ml of complete Ham's F10 medium supplemented with one of the molecules of interest at one of the following concentrations, 75 μM RSV, or 400 μM BZ, or 20 μM RSV, or 30 μM RSV, or 25 μM RSV, or 35 μM RSV, or the culture medium is discarded and replaced with 1 ml of complete Ham's F10 medium supplemented with a combination of the two molecules of interest at the following concentrations: (20 μM RSV+[…]), or (30 μM RSV+[…]). Additional wells receive 1 ml of complete medium supplemented with the diluent of the molecules of interest only (<0.05% DMSO). Each of these treatment conditions is applied in triplicate (3 wells) for each patient, in each experiment. The 24-well dishes are then incubated at 37° C. for 48 hours. Thus, the cells of each individual studied are treated in all of the conditions listed, in parallel, for 48 hours, before the measurement of palmitate β-oxidation. The fatty acid used is palmitate labeled with tritium at positions 9 and 10 (^3H-Pal). A stock solution is prepared beforehand by mixing 100 μl of ^3H-Pal, 130 μl of 50 mM “cold” palmitate and 13 ml of 25 mg/ml BSA solution. A ^3H-Pal/BSA (bovine serum albumin) complex ensuring good palmitate solubilization is thus obtained (final palmitate concentration: 500 μM). The test of ^3H-palmitate oxidation is carried out on fibroblasts seeded in a 24-well plate. The culture medium is first discarded and the wells are rinsed three times with PBS. A 125 μM ^3H-Pal working solution is prepared, from the 500 μM stock solution, in PBS with Ca/Mg, supplemented with 1 mM carnitine. 200 μl of t[…]-Pal solution is introduced into each well and the plates are incubated at 37° C. for 2 hours. During this time, three counting vials are prepared for the measurement of specific radioactivity (RDA, in CPM/nmol of fatty acids) of the reaction medium. These vials contain 5 ml of scintillation fluid, 1.5 ml of distilled water, and 20 μl of ^3H-Pal/BSA solution. The scintillation fluid converts the radioactive energy of ^3H into light energy, which thus makes it possible to measure radioactivity, expressed in counts per minute (CPM), using a liquid scintillation counter. At the end of 2 hours of incubation, 200 μl is taken from each well and mixed with 200 μl of 10% trichloroacetic acid (TCA). This strong acid ensures the precipitation of unmetabolized BSA/AG complex. The tubes are then centrifuged at 3300 rpm for 10 minutes at 4° C. After centrifugation, 350 μl of supernatant is taken and mixed with […] of 6 M NaOH in order to neutralize the pH. The total volume, or 450 μl, is transferred to an ion-exchange resin column which retains the tritiated water. These columns are then transferred to scintillation vials. The tritiated water is then eluted with 1.7 ml of distilled water. 5 ml of scintillation fluid is added to the tritiated water and the vials are placed in the liquid scintillation counter.
smiles,measurement,setting,value
"Oc1ccc(/C=C/c2cc(O)cc(O)c2)cc1 [RSV, 5-[(E)-2-(4-hydroxyphenyl)-ethenyl]benzene-1,3-diol]",% increase in fatty acid oxidation (FAO),"[1]; patient E3536, 75 μM RSV alone",145%
same,"% increase in fatty acid oxidation (FAO), Measured","[1]; patient E3536, Condition 1, 20 μM RSV alone",81%
same,"% increase in fatty acid oxidation (FAO), Measured","[1]; patient E3536, Condition 2, 30 μM RSV alone",106%
same,% increase in fatty acid oxidation (FAO),"[1]; patient beta, 75 μM RSV alone",67%
same,"% increase in fatty acid oxidation (FAO), Measured","[1]; patient beta, Condition 1, 20 μM RSV alone",22%
same,"% increase in fatty acid oxidation (FAO), Measured","[1]; patient beta, Condition 2, 30 μM RSV alone",43%
same,% increase in fatty acid oxidation (FAO),"[2]; patient DIA Ke, 75 μM RSV alone",44%
same,"% increase in fatty acid oxidation (FAO), Measured","[2]; patient DIA Ke, Condition 1, 20 μM RSV alone",49%
same,"% increase in fatty acid oxidation (FAO), Measured","[2]; patient DIA Ke, Condition 2, 30 μM RSV alone",66%
same,% increase in fatty acid oxidation (FAO),"[2]; patient alpha, 75 μM RSV alone",100%
same,"% increase in fatty acid oxidation (FAO), Measured","[2]; patient alpha, Condition 1, 20 μM RSV alone",39%
same,"% increase in fatty acid oxidation (FAO), Measured","[2]; patient alpha, Condition 2, 30 μM RSV alone",48%
same,"reduction in dose by a factor, combination vs compound alone",[3],2.5
same,concentration at which the compound alone corrects the deficiency,[3],75 µM
same,factor by which combining the two molecules decreases the dose needed to correct the deficiency,[3],2
"CC(C)(Oc1ccc(CCNC(=O)c2ccc(Cl)cc2)cc1)C(=O)O [BZ, 2-(4-(2-((4-chlorobenzoyl)amino)ethyl)phenoxy)-2-methylpropanoic acid]",% increase in fatty acid oxidation (FAO),"[1]; patient E3536, 400 μM BZ alone",128%
same,"% increase in fatty acid oxidation (FAO), Measured","[1]; patient E3536, Condition 1, 25 μM BZ alone",7%
same,"% increase in fatty acid oxidation (FAO), Measured","[1]; patient E3536, Condition 2, 35 μM BZ alone",20%
same,% increase in fatty acid oxidation (FAO),"[1]; patient beta, 400 μM BZ alone",83%
same,"% increase in fatty acid oxidation (FAO), Measured","[1]; patient beta, Condition 1, 25 μM BZ alone",1%
same,"% increase in fatty acid oxidation (FAO), Measured","[1]; patient beta, Condition 2, 35 μM BZ alone",8%
same,% increase in fatty acid oxidation (FAO),"[2]; patient DIA Ke, 400 μM BZ alone",62%
same,"% increase in fatty acid oxidation (FAO), Measured","[2]; patient DIA Ke, Condition 1, 25 μM BZ alone",0%
same,"% increase in fatty acid oxidation (FAO), Measured","[2]; patient DIA Ke, Condition 2, 35 μM BZ alone",6%
same,% increase in fatty acid oxidation (FAO),"[2]; patient alpha, 400 μM BZ alone",88%
same,"% increase in fatty acid oxidation (FAO), Measured","[2]; patient alpha, Condition 1, 25 μM BZ alone",0%
same,"% increase in fatty acid oxidation (FAO), Measured","[2]; patient alpha, Condition 2, 35 μM BZ alone",6%
same,"reduction in dose by a factor, combination vs compound alone",[3],11.4
same,concentration at which the compound alone corrects the deficiency,[3],400 µM
same,factor by which combining the two molecules decreases the dose needed to correct the deficiency,[3],10
